Measured values published in ChEMBL document CHEMBL6121051, “Dendritic Antifungal Peptides as Potent Agents against Drug-Resistant Candida albicans and Biofilm” (J Med Chem, 2025).
In brackets after ≈: the same amount, converted by molar mass. Activity calls are given as the source filed them. The calls are words filed in the database; no cut-off is given here. Positions of bridges follow the written chain, without caps; N, C: chain ends. Residues, ends and D or L forms follow the SMILES beside them. Chains are numbered I, II in the order given. *: point of attachment. Butyryl = CCCC(=O)*

Columns and labels:
[1] = Cytotoxicity against human HEK293T cells assessed as cell survival rate at 128 ug/ml incubated for 4 hrs by MTT assay; type: toxicity, cell-based, HEK-293T; conditions: dose 128 µg/ml, read-out: Activity
[2] = test system: Candida albicans; assay: Antifungal activity against fluconazole-resistant Candida albicans 56214 infected in ICR mouse assessed as reduction in TNF-alpha expression in skin wound at 5 mg/ml administered topically bid for 3 days starting at 12 hrs post-infection and measured after 7 days by immunofluorescence analysis; type: functional, organism-based; conditions: time 7.0 day
[3] = test system: Cell wall; assay: Induction of cell wall permeability in Candida albicans 2.2086 assessed as increase in cell wall damage by NPN probe based fluorescence analysis; type: subcellular; conditions: dose 4-128 µM
[4] = test system: Candida albicans; assay: Antifungal activity against fluconazole-resistant Candida albicans 56214 infected in ICR mouse assessed as elimination of fungal hyphae on the infected skin at 5 mg/ml administered topically bid for 3 days starting at 12 hrs post-infection and measured after 7 days by PAS staining; type: functional, organism-based; conditions: time 7.0 day
[5] = test system: Candida albicans; assay: Antifungal activity against Candida albicans assessed as inhibition of fungal growth compound preincubated with upto 4 mg/ml trypsin for 4 hrs followed by incubation with fungus for 48 hrs; type: functional, organism-based
[6] = test system: HEK-293T; assay: Cytotoxicity against human HEK293T cells assessed as damage to cells at 4XMIC incubated for 8 hrs by Calcein-AM/PI staining based fluorescence microscopy; type: toxicity, cell-based
[7] = Drug localization in Candida albicans cell membrane using FITC-labeled compound by FITC/PI staining based confocal microscopy; type: ADME, cell membranes
[8] = test system: Candida albicans; assay: Fungicidal activity against fluconazole-resistant Candida albicans 56214 assessed as killing effect by measuring orange fluorescence at 8 uM incubated for 1 hr by SYTO9/PI staining based fluorescence microscopy; type: functional
[9] = test system: Candida albicans; assay: Antifungal activity against Candida albicans SP 3902 assessed as inhibition of fungal growth incubated for 48 hrs; type: functional
[10] = test system: Candida albicans; assay: Fungicidal activity against fluconazole-resistant Candida albicans 56214 assessed as killing effect within biofilms by measuring increase in red fluorescence intensity at 8 uM incubated for 3 hrs by SYTO9/PI staining based fluorescence microscopy; type: functional
[11] = test system: Candida albicans; assay: Antifungal activity against fluconazole-resistant Candida albicans 56214 infected in ICR mouse assessed as wound healing with appearance of new skin tissue at 5 mg/ml administered topically bid for 3 days starting at 12 hrs post-infection and measured for 6 days; type: functional, organism-based; conditions: time 6.0 day
[12] = test system: Candida albicans; assay: Antifungal activity against Candida albicans assessed as inhibition of fungal growth incubated for 48 hrs in presence of FeCl3; type: functional, organism-based
[13] = test system: Candida albicans; assay: Antifungal activity against Candida albicans assessed as inhibition of fungal growth incubated for 48 hrs in presence of NH4Cl; type: functional, organism-based
[14] = test system: Candida albicans; assay: Antifungal activity against Candida albicans assessed as inhibition of fungal growth preincubated with 8 mg/ml proteinase K for 8 hrs followed by incubation with fungus for 48 hrs; type: functional, organism-based
[15] = test system: Candida albicans; assay: Antifungal activity against Candida albicans assessed as inhibition of fungal growth incubated for 48 hrs in presence of CaCl2; type: functional, organism-based
[16] = test system: Candida albicans; assay: Induction of morphological changes in Candida albicans 2.2086 at 8 to 16 uM incubated for 2 hrs by fluorescence cell imaging system; type: functional, organism-based; conditions: dose 8-16 µM
[17] = test system: Candida albicans; assay: Antifungal activity against Candida albicans assessed as inhibition of fungal growth compound preincubated with upto 8 mg/ml chymotrypsin for 4 hrs followed by incubation with fungus for 48 hrs; type: functional, organism-based
[18] = test system: Candida albicans; assay: Antifungal activity against Candida albicans cgmcc 2.2086 assessed as inhibition of fungal growth incubated for 48 hrs; type: functional
[19] = test system: Candida albicans; assay: Antifungal activity against Candida albicans assessed as inhibition of fungal growth preincubated with 4 mg/ml trypsin for 8 hrs followed by incubation with fungus for 48 hrs; type: functional, organism-based
[20] = test system: Candida albicans; assay: Antifungal activity against Candida albicans assessed as inhibition of fungal growth compound preincubated with upto 8 mg/ml proteinase K for 4 hrs followed by incubation with fungus for 48 hrs; type: functional, organism-based
[21] = Drug penetration into mature fluconazole-resistant Candida albicans 56214 biofilms assessed as increase in green fluorescence intensity at 8 to 16 uM using FITC-labeled compound incubated in dark for 3 hrs by DAPI staining based laser confocal microscopy; type: ADME; conditions: dose 8-16 µM
[22] = test system: Candida albicans; assay: Inhibition of biofilm formation of fluconazole-resistant Candida albicans 56214 at 8 uM incubated for 48 hrs by crystal violet staining based analysis; type: functional
[23] = Drug localization in Candida albicans cell membrane using FITC-labeled compound at 8 uM incubated for 3 hrs by DAPI staining based fluorescence microscopy; type: ADME, cell membranes
[24] = test system: Candida albicans; assay: Antifungal activity against Candida albicans assessed as inhibition of fungal growth incubated for 48 hrs in presence of KCl; type: functional, organism-based
[25] = test system: RAW264.7; assay: Cytotoxicity against mouse RAW264.7 cells assessed as damage to cells at 4XMIC incubated for 8 hrs by Calcein-AM/PI staining based fluorescence microscopy; type: toxicity, cell-based; conditions: raw264.7, 8 h
[26] = test system: Cell membrane; assay: Disruption of cytoplasmic membrane in Candida albicans 2.2086 assessed as increase in membrane depolarization at 1XMIC by diSC3-5 dye based potentiometric analysis
[27] = test system: Candida albicans; assay: Antifungal activity against Candida albicans SP 3931 assessed as inhibition of fungal growth incubated for 48 hrs; type: functional
[28] = test system: HEK-293T; assay: Cytotoxicity against human HEK293T cells assessed as cell viability at 8 to 128 ug/ml incubated for 4 hrs by MTT assay; type: toxicity, cell-based; conditions: dose 8-128 µg/ml
[29] = test system: Cell membrane; assay: Induction of cell membrane damage in Candida albicans assessed as scattered distribution of cell wall and cell membrane structures, loss of integrity and leakage of contents at 16 uM incubated for 1 hr by scanning electron microscopy; type: subcellular
[30] = test system: Candida albicans; assay: Antifungal activity against fluconazole-resistant Candida albicans 56214 infected in ICR mouse assessed as reduction in severity of skin infection at 5 mg/ml administered topically bid for 3 days starting at 12 hrs post-infection and measured after 7 days by PAS staining based analysis; type: functional, organism-based; conditions: time 7.0 day
[31] = test system: Cell wall; assay: Induction of cell wall permeability in Candida albicans 2.2086 at 16 uM by NPN probe based fluorescence analysis; type: subcellular
[32] = test system: Candida albicans; assay: Antifungal activity against Candida albicans 17546 assessed as inhibition of fungal growth incubated for 48 hrs; type: functional
[33] = test system: Candida albicans; assay: Antifungal activity against Candida albicans assessed as inhibition of fungal growth incubated for 48 hrs in presence of NaCl; type: functional, organism-based
[34] = test system: Candida albicans; assay: Antifungal activity against fluconazole-resistant Candida albicans 56214 infected in ICR mouse assessed as reduction in oxidative stress by measuring decrease in ROS accumulation in skin wounds at 5 mg/ml administered topically bid for 3 days starting at 12 hrs post-infection and measured after 7 days by fluorescence staining based analysis; type: functional, organism-based; conditions: time 7.0 day
[35] = test system: Candida albicans; assay: Antifungal activity against Candida albicans assessed as inhibition of fungal growth incubated for 48 hrs in presence of MgCl2; type: functional, organism-based
[36] = test system: Candida albicans; assay: Antifungal activity against Candida albicans 14936 assessed as inhibition of fungal growth incubated for 48 hrs; type: functional
[37] = test system: Candida albicans; assay: Antifungal activity against Candida albicans 58288 assessed as inhibition of fungal growth incubated for 48 hrs; type: functional
[38] = test system: Candida albicans; assay: Antifungal activity against Candida albicans SP 3903 assessed as inhibition of fungal growth incubated for 48 hrs; type: functional
[39] = Toxicity against human RBC assessed as hemolysis rate at 128 ug/ml incubated for 1 hr; type: cell-based, Erythrocyte; conditions: red blood cells (RBC), dose 128 µg/ml, read-out: Activity
[40] = test system: Cell membrane; assay: Disruption of cytoplasmic membrane in Candida albicans 2.2086 assessed as increase in membrane depolarization at 1XMIC to 4XMIC measured after 500 secs by diSC3-5 dye based potentiometric analysis; type: subcellular; conditions: time 500.0 sec
[41] = test system: Cell membrane; assay: Induction of cell membrane damage in Candida albicans assessed as scattered distribution of cell wall and cell membrane structures, loss of integrity and leakage of contents at 16 uM incubated for 1 hr by transmission electron microscopy; type: subcellular
[42] = test system: Candida albicans; assay: Antifungal activity against Candida albicans assessed as inhibition of fungal growth preincubated with 8 mg/ml chymotrypsin for 8 hrs followed by incubation with fungus for 48 hrs; type: functional, organism-based
[43] = test system: Candida albicans; assay: Induction of ROS production in Candida albicans 2.2086 assessed as increase in intracellular ROS accumulation at <4 uM incubated for 1 hr by DCFH-DA staining based fluorescence analysis; type: functional, organism-based
[44] = test system: Candida albicans; assay: Fungicidal killing kinetic activity against fluconazole-resistant Candida albicans 56214 assessed as killing of fungi at 1XMIC to 4XMIC incubated with fungus in PBS solution for 3 mins followed by culturing on YPD plate for 48 hrs; type: functional, organism-based; conditions: time 2883.0 min
[45] = test system: Candida albicans; assay: Antifungal activity against fluconazole-resistant Candida albicans 56214 assessed as inhibition of fungal growth incubated for 48 hrs; type: functional
[46] = test system: Candida albicans; assay: Antifungal activity against Candida albicans 2.3989 assessed as inhibition of fungal growth incubated for 48 hrs; type: functional
[47] = test system: Candida albicans; assay: Antifungal activity against fluconazole-resistant Candida albicans 56214 infected in ICR mouse assessed as log reduction in fungal burden on the infected skin at 5 mg/ml administered topically bid for 3 days starting at 12 hrs post-infection and measured after 7 days; type: functional; conditions: time 7 day
[48] = test system: Candida albicans; assay: Antifungal activity against Candida albicans assessed as inhibition of fungal growth incubated for 48 hrs in presence of ZnCl2; type: functional, organism-based
[49] = test system: Candida albicans; assay: Antifungal activity against fluconazole-resistant Candida albicans 56214 infected in ICR mouse assessed as reduction in IL-6 expression in skin wound at 5 mg/ml administered topically bid for 3 days starting at 12 hrs post-infection and measured after 7 days by immunofluorescence analysis; type: functional, organism-based; conditions: time 7.0 day

CCCC(=O)NCC(=O)NCC(=O)NCC(=O)N[C@@H](CCCCNC(=O)[C@@H]1CCCN1C(=O)[C@H](CCCNC(=N)N)NC(=O)[C@@H]1CCCN1C(=O)[C@H](CCCNC(=N)N)NC(=O)[C@@H]1CCCN1C(=O)[C@@H](N)CCCNC(=N)N)C(=O)N[C@@H](CCCCNC(=O)[C@@H]1CCCN1C(=O)[C@H](CCCNC(=N)N)NC(=O)[C@@H]1CCCN1C(=O)[C@H](CCCNC(=N)N)NC(=O)[C@@H]1CCCN1C(=O)[C@@H](N)CCCNC(=N)N)C(=O)N[C@@H](CCCNC(=N)N)C(=O)N1CCC[C@H]1C(=O)N[C@@H](CCCNC(=N)N)C(=O)N1CCC[C@H]1C(=O)N[C@@H](CCCNC(=N)N)C(=O)N1CCC[C@H]1C(N)=O (I: Butyryl-GGGKKRPRPRP-NH2 / II: H-RPRPRP / III: H-RPRPRP; amide I:4-II:C, I:5-III:C)
viability at 4 h, 128 ug/ml [1]: 95% | Activity [2]: Active | Activity [3]: Dose-dependent-effect | Activity [4]: Active | Activity [5]: Active | Activity [6]: Non-toxic | Drug uptake [7]: Active | Activity [8]: 90% | MIC [9]: 4 µM (≈ 11.2 µg/mL) | Activity [10]: >90% | Activity [11]: Active | Activity [12]: Active | Activity [13]: Active | Activity [14]: Active | Activity [15]: Active | Activity [16]: Active | Activity [17]: Active | MIC [18]: 4 µM (≈ 11.2 µg/mL) | Activity [19]: Active | Activity [20]: Active | Drug uptake [21]: Active | inhibition at 8 µM [22]: 100% | Drug uptake [23]: > 90% | Activity [24]: Active | Activity [25]: Non-toxic | Activity [26]: Active; Effective Depolarization Observed | MIC [27]: 4 µM (≈ 11.2 µg/mL) | Activity [28]: Non-toxic | Activity [29]: Active | Activity [30]: Active | Activity [31]: 100% | MIC [32]: 16 µM (≈ 44.7 µg/mL) | Activity [33]: Active | Activity [34]: Active | Activity [35]: Active | MIC [36]: 4 µM (≈ 11.2 µg/mL) | MIC [37]: 8 µM (≈ 22.4 µg/mL) | MIC [38]: 4 µM (≈ 11.2 µg/mL) | hemolysis at 1 h, 128 ug/ml [39]: < 2% | Activity [40]: Active | Activity [41]: Active | Activity [42]: Active | Activity [43]: Active | Activity [44]: Active | MIC [45]: 4 µM (≈ 11.2 µg/mL) | MIC [46]: 4 µM (≈ 11.2 µg/mL) | log(activity) [47]: ~1.7 | Activity [48]: Active | Activity [49]: Active
